The nature of data set [1]: Deaths and body weight during treatment. Type of data set: in vivo, mice. As for the experimental part: using individual calibration curves established with the corresponding tissue homogenates from untreated mice. The calibration curve was regressed with a weight of 1/x2 with high linearity (r2 […]
Spatial distribution of CDD-2807 in testis. The testis from the mice treated with CDD-2807 were attached to the Leica CM3050 S cryostat (Leica Biosystems, Deer Park, IL) with water and then sectioned at the thickness of 10 μm at −20°C. The sections were attached to electrically conductive glass slides coated with indium tin oxide ([…], 70-100 ohms, Delta Technologies, Loveland, CO). Tissue sections were sprayed with a matrix solution containing 35 mg/mL 2,5-dihydroxybenzoic acid (DHB, Sigma, St. Louis, MO) in 70% aqueous CH3OH with 0.1% trifluoroacetic acid using an HTX TM-Sprayer (HTX Technologies LLC, Carrboro, NC). Sprayer nozzle temperature was set at 70°C, tray temperature at 40°C, nozzle velocity at 1200 mm/min, track spacing at 2 mm, drying time for 10 sec and nitrogen gas pressure at 10 psi. The data were collected on the Bruker TimsTOF MS MALDI-2 instrument with the resolution at 40 µm/pixel (mass range 100−1000 Da under the positive mode) using DHB ion as the on-line calibrant. The data was analyzed, and the images were plotted by SciLs Lab software (Bruker, Billerica, MA). […]
Alanine transaminase (ALT) and aspartate transaminase (AST) assays. […] ALT and AST levels were measured in duplicates using assay kits (StanBio, Boerne, TX) according to the manufacturer's instructions. ALT and AST levels were determined using the rate of NADH oxidation, which was quantified by measuring absorbance at 340 nm using a CLARIOstar plate reader (BMG Labtech in Cary, NC). ALT and AST were tested for significance at multiple collection time points, tests for significance included a test for normality (Shapiro-Wilk test) and following the test for normality were then analyzed using an unpaired t-test with significance determined by an alpha of P = 0.05. […]
Fertility analysis. […] Weights were measured daily prior to drug administration and monitored throughout the entirety of the injection period. […]

For another data set, the target named is RET (Homo sapiens, UniProt P07949). Nature of the data set: NanoBRET K192 assay (Promega). Type of data set: cell-based. As to conditions: HEK293 cells. Set-up: host or cells: HEK293 (HEK293T cultured). The protocol:
(§1) NanoBRET Target Engagement K192 assay. HEK293 cells (ATCC) were cultured in DMEM (Gibco) + 10% FBS (Seradigm) and incubated in a humidified 37°C/5% CO2 incubator. The NanoBRET Target Engagement K192 Kinase Selectivity System (Promega) contains 192 unique transfection-ready NanoLuc/Kinase fusions, pre-diluted in either transfection carrier DNA or relevant cyclin DNA. These NanoLuc/Kinase fusion constructs were transfected into HEK293 cells using Fugene HD (Promega) according to the manufacturer’s protocol. Briefly, 10 µL of a 20 µg/mL DNA solution was added to white, TC-treated 96-well assay plates (Corning), followed by 30 µL of a diluted Fugene HD solution (20 µL Fugene/1 mL Opti-MEM). After transfection complex formation, HEK293 cells were resuspended at 3.3 × 105 c/mL in Opti-MEM + 1% FBS and added at a volume of 60 µL per well, to result in approximately 20000 cells/well. Cells were incubated in a humidified 37°C/5% CO2 incubator for 20 hours. Tracer K-10 (Promega) was prepared at a 100× concentration in DMSO (Sigma) and diluted to a working concentration of 10× in tracer dilution buffer (12.5 mM HEPES, 31.25% PEG400, pH 7.5) (Promega). Test compounds were prepared as concentrated stock solutions in DMSO and diluted in Opti-MEM to prepare 10× working stocks. Cells were equilibrated with test compounds and Tracer K-10 for 2 hours prior to BRET measurements. For target engagement analysis, Tracer K-10 was added to cells at one of 4 […]
(§2) manufacturer’s protocol. To measure BRET, NanoBRET NanoGlo Substrate and Extracellular NanoLuc Inhibitor (Promega) were added according to the manufacturer’s protocol, and filtered luminescence was measured on a GloMax Discover luminometer equipped with 450 nm BP filter (donor) and 600 nm LP filter (acceptor), using 0.5 s integration time. Milli-BRET units are calculated by multiplying the raw BRET units by 1000.
(§3) For Fractional Occupancy determination, the following equation was used:
(§4) % Occupancy = [1-(X-Z)/(Y-Z)]×100
(§5) Where X = BRET in the presence of the test compound and Tracer K10, Y = BRET in the presence of Tracer K10 only, and Z = Full occupancy, or BRET in the absence of the test compound and […]
(§6) Tracer K10. […]

The target in another data set is STK33 (Homo sapiens, UniProt Q9BYT3). Nature of the data set: NanoBRET K192 assay (Promega). Type of data set: cell-based. Also on record: host or cells: HEK293 (HEK293T cultured). As to conditions: HEK293 cells. The protocol:
as §1, §2, §3, §4, §5, §6
Background: In BRET a luciferase serves as donor, and the signal depends on an acceptor being close.

From article PMC11842024, “Reversible male contraception by targeted inhibition of serine/threonine kinase 33” (Science (New York, N.Y.), 2024) come the findings set out here.

RET, sequence (P07949 29-1114): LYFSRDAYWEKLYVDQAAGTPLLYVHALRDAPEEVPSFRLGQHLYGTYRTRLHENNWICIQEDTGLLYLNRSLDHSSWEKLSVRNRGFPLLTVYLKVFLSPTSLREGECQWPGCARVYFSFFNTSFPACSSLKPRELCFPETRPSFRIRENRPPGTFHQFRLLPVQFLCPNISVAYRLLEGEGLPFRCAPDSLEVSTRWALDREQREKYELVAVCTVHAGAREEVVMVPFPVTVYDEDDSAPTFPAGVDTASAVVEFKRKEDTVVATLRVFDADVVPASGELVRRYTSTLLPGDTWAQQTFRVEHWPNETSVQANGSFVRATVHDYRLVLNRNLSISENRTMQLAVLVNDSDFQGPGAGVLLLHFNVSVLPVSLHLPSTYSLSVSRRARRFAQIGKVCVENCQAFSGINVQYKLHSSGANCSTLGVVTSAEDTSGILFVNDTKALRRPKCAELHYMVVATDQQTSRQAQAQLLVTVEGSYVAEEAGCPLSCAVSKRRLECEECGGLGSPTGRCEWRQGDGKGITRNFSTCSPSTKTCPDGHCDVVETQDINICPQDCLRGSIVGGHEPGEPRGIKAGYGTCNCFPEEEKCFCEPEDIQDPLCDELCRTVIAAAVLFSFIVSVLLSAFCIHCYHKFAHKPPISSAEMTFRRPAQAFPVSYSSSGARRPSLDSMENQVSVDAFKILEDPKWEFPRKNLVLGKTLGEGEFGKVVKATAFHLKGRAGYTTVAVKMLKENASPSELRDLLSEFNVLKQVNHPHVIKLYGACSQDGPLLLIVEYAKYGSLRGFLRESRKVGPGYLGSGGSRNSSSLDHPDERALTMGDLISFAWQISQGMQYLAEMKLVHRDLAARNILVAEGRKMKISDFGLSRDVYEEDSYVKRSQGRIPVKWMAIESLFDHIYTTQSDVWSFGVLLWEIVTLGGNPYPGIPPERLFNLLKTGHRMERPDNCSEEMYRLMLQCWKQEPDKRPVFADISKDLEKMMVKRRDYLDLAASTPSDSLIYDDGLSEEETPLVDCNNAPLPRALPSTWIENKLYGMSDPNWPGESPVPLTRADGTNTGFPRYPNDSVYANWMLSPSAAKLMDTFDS
STK33, sequence (Q9BYT3 whole entry): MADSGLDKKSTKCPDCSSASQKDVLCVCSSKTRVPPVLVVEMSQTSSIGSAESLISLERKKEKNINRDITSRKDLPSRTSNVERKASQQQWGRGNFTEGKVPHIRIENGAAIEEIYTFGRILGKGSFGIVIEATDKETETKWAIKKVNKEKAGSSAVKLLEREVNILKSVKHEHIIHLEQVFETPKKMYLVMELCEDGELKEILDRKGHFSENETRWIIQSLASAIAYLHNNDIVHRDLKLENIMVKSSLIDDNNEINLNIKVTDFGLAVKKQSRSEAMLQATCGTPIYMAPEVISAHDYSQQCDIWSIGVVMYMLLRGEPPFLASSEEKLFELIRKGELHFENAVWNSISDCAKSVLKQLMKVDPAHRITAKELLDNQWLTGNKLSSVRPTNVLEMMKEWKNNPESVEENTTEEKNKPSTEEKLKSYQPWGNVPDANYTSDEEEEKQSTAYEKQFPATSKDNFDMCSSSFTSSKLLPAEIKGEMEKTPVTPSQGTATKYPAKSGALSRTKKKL

For the molecule `O=C(c1ccc2[nH]nc(C#Cc3ccccc3-c3ccccc3)c2c1)N1CC2(CCCNC2)C1` [CDD-2807], in data set [1] (50 mg/kg/day for 7 days (Protocol 3)), the mouse body weights amounted to 27.05 ± 0.79 g. Also, in data set [1] (protocols 1 and 2), the “deaths during the period of treatment” value is reported as “no deaths” and the “weight changes during the period of treatment” value is reported as “no significant weight changes”. The receptor occupancy at 1 µM on RET (HEK293, at 1 µM) stood at 85.8 ± 0.2%. The “NanoBRET K192 assay % Occupancy RET” value at RET (at 1 µM) was > 80%. The receptor occupancy at 1 µM at STK33 was 95.9%.
